According to patent EP0943615A1, “1,4-DIHYDROPYRIDINE DERIVATIVES” (Nikken Chemicals Company, Limited, priority 1996, dated 1998):

What follows are compounds tested on VJ-300 cells (assay: In vitro test of action suppressing proliferation of cancer cells, combined administration of doxorubicin (colony formation), resistant cells). Conditions: ADM alone or ADM + test compound 1 µg/ml, LD50 of ADM relative to ADM alone in KB cells = 1, 7 days incubation, colony count.
Format: cell-based, Human
Protocol: Human rhinopharynx cancer derived KB cells (i.e., sensitive cells) and their multi-drug resistant clone VJ-300 cells (i.e., resistant cells) were used as the test cells. As the incubation solutions, use was made of 10% fetal calf serum (Flow Laboratories) and Eagle MEM medium (Nissui Seiyaku) containing 0.292 mg/ml of L-glutamine (Flow Laboratories). The tests of the action for overcoming resistance to anti-cancer drugs or action for increasing the effect of the anti-cancer drug with the combined administration of the anti-cancer drug doxorubicin (i.e., adriamycin, ADM) and the test compound were performed as follows:
The test cells were suspended in incubation solutions and adjusted to a cell density of about 200 cells/ml. The cell suspensions were injected in 2 ml amounts into petri dishes and were incubated in a CO2 gas incubator (5% CO2, 95% air) at 37°C for 24 hours. Then, 5 µl of a predetermined concentration of the aqueous ADM solution and a predetermined concentration of a DMSO solution of the test compound were added, then the incubation was continued for a further 7 days. After the end of the incubation, the result was immobilized with methanol, Giemsa stained and measured for the number of colonies per dish. The results were used to prepare a volume-reaction curve. […] The results are shown in Table 8 to Table 10 using the concentration of LD50 of ADM in the ADM alone group by KB cells as the resistance degree 1 and calculating the resistances of the following LD50 concentrations as relative ratios. […]

| Structure (SMILES) | Degree of resistance for ADM VJ-300 |
| --- | --- |
| CCOC(=O)C1=C(c2ccc(-n3c(C)nc4cnccc43)cc2)NC(C)=C(C(=O)OC/C=C/c2cccnc2)C1C=C1CCCCC1 (stereo not shown) [Compound 29, 4-cyclohexylidenemethyl-6-methyl-2-[4-(2-methylimidazo[4,5-c]pyridin-1-yl)phenyl]-1,4-dihydropyridin-3,5-dicarboxylate 3-ethylester, 5-[(E)-3-(3-pyridyl)-2-propenyl]ester] | 1.2 |
| CCOC(=O)C1=C(c2ccc(N3CCN(C)CC3)cc2)NC(C)=C(C(=O)OC/C=C/c2cccnc2)C1/C=C/c1ccccc1 (stereo not shown) [Compound 30, 6-methyl-2-[4-(4-methylpiperadin-1-yl)phenyl]-1,4-dihydropyridin-4-[(E)-2-phenylethenyl]-3,5-dicarboxylate 3-ethylester, 5-[(E)-3-(3-pyridyl)-2-propenyl]ester] | 1.0 |
| CCOC(=O)C1=C(c2ccc(SC)cc2)NC(C)=C(C(=O)OC/C=C/c2cccnc2)C1/C=C/c1ccccc1 (stereo not shown) [Compound 31, 6-methyl-2-(4-methylthiophenyl)-1,4-dihydropyridin-4-[(E)-2-phenylethenyl]-3,5-dicarboxylate 3-ethylester, 5-[(E)-3-(3-pyridyl)-2-propenyl]ester] | 2.6 |
| CCOC(=O)C1=C(c2ccc(-n3nnc4ccccc43)cc2)NC(C)=C(C(=O)OC/C=C/c2cccnc2)C1/C=C/c1ccccc1 (stereo not shown) [Compound 32, 2-[4-(1H-benzotriazol-1-yl)phenyl]-6-methyl-4-[(E)-2-phenylethenyl]-1,4-dihydropyridin-3,5-dicarboxylate 3-ethylester, 5-[(E)-3-(3-pyridyl)-2-propenyl]ester] | 1.4 |
| CCOC(=O)C1=C(c2ccc(N3CCOCC3)cc2)NC(C)=C(C(=O)OC/C=C/c2cccnc2)C1/C=C/c1ccccc1 (stereo not shown) [Compound 34, 6-methyl-2-(4-morpholinophenyl)-4-[(E)-2-phenylethenyl]-1,4-dihydropyridin-3,5-dicarboxylate 3-ethylester, 5-[(E)-3-(3-pyridyl)-2-propenyl]ester] | 3.0 |
| CCOC(=O)C1=C(c2ccc(-n3ccc4ccccc43)cc2)NC(C)=C(C(=O)OC/C=C/c2cccnc2)C1/C=C/c1ccccc1 (stereo not shown) [Compound 35, 2-[4-(1-indolyl)phenyl]-6-methyl-4-[(E)-2-phenylethenyl]-1,4-dihydropyridin-3,5-dicarboxylate 3-ethylester, 5-[(E)-3-(3-pyridyl)-2-propenyl]ester] | 3.0 |
| CCOC(=O)C1=C(c2cccc(-n3ccnc3)c2)NC(C)=C(C(=O)OC/C=C/c2cccnc2)C1/C=C/c1ccccc1 (stereo not shown) [Compound 36, 2-[3-(1-imidazolyl)phenyl]-6-methyl-4-[(E)-2-phenylethenyl]-1,4-dihydropyridin-3,5-dicarboxylate 3-ethylester, 5-[(E)-3-(3-pyridyl)-2-propenyl]ester] | 1.0 |
| CCCCCC1C(C(=O)OC/C=C/c2cccnc2)=C(C)NC(c2cccc(-n3ccnc3)c2)=C1C(=O)OCC (stereo not shown) [Compound 37, 2-[3-(1-imidazolyl)phenyl]-6-methyl-4-pentyl-1,4-dihydropyridin-3,5-dicarboxylate 3-ethylester, 5-[(E)-3-(3-pyridyl)-2-propenyl]ester] | 2.5 |
| COC(=O)C1=C(c2ccc(-n3ccnc3)cc2)NC(C)=C(C(=O)OC/C=C/c2cccnc2)C1C1CCCCC1 (stereo not shown) [Compound 38, 4-cyclohexyl-2-[4-(1-imidazolyl)phenyl]-6-methyl-1,4-dihydropyridin-3,5-dicarboxylate 3-methylester, 5-[(E)-3-(3-pyridyl)-2-propenyl]ester] | 2.4 |
| COC(=O)C1=C(c2ccc(-n3ccnc3)cc2)NC(C)=C(C(=O)OC/C=C/c2cccnc2)C1/C=C/c1ccccc1 (stereo not shown) [Compound 39, 2-[4-(1-imidazolyl)phenyl]-6-methyl-1,4-dihydropyridin-4-[(E)-2-phenylethenyl]-3,5-dicarboxylate 3-methylester, 5-[(E)-3-(3-pyridyl)-2-propenyl]ester] | 1.2 |
